Source: patent US11254686B1 (Corvus Pharmaceuticals, Inc., priority 2017, dated 2022)

Experiments:
Assay type in all cases: biochemical
adenosine A2B receptor = adenosine A2B receptor (Homo sapiens (Human), UniProt P29275); assay: Adenosine receptor activity assay (Table 1), A2B activity; details: for Ratio: A2A activity to the A2B activity, A2A/A2B; for IC50: cAMP, read-out: Ave A2B cAMP IC50
adenosine A3 receptor = adenosine A3 receptor (Homo sapiens (Human), UniProt P0DMS8); assay: Adenosine receptor activity assay (Table 1), A3 cAMP
Chain of adenosine A3 receptor (P0DMS8 whole entry): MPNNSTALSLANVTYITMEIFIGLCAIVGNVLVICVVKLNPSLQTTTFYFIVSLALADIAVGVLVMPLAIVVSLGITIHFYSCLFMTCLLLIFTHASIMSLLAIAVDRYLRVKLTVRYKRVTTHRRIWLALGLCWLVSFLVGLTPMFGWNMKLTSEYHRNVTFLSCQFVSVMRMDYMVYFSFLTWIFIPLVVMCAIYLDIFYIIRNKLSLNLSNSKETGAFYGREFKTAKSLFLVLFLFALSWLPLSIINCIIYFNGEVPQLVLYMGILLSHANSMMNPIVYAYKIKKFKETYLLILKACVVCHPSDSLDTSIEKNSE

adenosine A2A receptor = adenosine A2A receptor (Homo sapiens (Human), UniProt P29274); assay: Adenosine receptor activity assay (Table 1), A2A activity; details: cAMP; read-out: Ave A2A cAMP IC50
Chain of adenosine A2A receptor (P29274 whole entry): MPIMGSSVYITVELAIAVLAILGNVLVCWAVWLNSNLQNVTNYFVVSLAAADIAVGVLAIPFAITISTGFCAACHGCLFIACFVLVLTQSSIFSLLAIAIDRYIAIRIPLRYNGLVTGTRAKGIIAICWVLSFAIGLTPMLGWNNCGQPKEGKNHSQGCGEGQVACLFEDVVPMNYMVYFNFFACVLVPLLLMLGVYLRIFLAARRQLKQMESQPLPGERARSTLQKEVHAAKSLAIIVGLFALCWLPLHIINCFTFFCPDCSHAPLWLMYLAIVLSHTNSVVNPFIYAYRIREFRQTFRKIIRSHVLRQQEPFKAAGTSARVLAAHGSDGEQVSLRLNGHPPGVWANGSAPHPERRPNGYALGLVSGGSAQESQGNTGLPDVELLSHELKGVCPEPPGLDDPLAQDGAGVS

adenosine A1 receptor = adenosine A1 receptor (Homo sapiens (Human), UniProt P30542); assay: Adenosine receptor activity assay (Table 1), A1 cAMP
Chain of adenosine A1 receptor (P30542 whole entry): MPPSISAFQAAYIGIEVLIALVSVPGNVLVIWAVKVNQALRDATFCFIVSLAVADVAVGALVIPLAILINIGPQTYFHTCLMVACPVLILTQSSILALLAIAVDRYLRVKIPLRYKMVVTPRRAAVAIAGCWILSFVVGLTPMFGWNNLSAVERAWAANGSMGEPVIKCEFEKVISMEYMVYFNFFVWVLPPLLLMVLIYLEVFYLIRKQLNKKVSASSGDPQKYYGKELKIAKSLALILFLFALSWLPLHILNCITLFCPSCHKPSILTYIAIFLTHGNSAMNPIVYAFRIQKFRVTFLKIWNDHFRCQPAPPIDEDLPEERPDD

Chain of adenosine A2B receptor (P29275 whole entry): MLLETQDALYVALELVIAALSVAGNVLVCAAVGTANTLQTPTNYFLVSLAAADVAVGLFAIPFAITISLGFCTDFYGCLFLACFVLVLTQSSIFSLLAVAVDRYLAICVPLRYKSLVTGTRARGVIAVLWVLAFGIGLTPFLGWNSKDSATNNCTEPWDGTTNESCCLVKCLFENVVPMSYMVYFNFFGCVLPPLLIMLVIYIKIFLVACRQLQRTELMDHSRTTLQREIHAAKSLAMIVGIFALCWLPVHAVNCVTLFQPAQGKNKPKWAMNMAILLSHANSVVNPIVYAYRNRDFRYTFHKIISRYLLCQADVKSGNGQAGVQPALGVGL

Row | SMILES | Ratio (adenosine A2B receptor) | IC50 (adenosine A2B receptor) [nM] | IC50 (adenosine A3 receptor) [nM] | IC50 (adenosine A2A receptor) [nM] | IC50 (adenosine A1 receptor) [nM]
1 | C[C@H](Nc1nc(C(=O)N2CC(NC(=O)C3(C)CC3)C2)c2sccc2n1)c1cncc(F)c1 [Example Z603, (S)—N-(1-(2-((1-(5-Fluoropyridin-3-yl)ethyl)amino)thieno[3,2-d]pyrimidine-4-carbonyl)azetidin-3-yl)-1-methylcyclopropane-1-carboxamide] | 1.00 | < 10 | 100 to 500 | < 10 | > 500
2 | C[C@H](Nc1nc(C(=O)N2CC(NC(=O)C34CC(C3)C4)C2)c2sccc2n1)c1cncc(F)c1 [Example Z604, (S)—N-(1-(2-((1-(5-Fluoropyridin-3-yl)ethyl)amino)thieno[3,2-d]pyrimidine-4-carbonyl)azetidin-3-yl)bicyclo[1.1.1]pentane-1-carboxamide] | 0.88 | < 10 | 100 to 500 | < 10 | > 500
3 | C[C@H](Nc1nc(C(=O)N2CC(NC(=O)C3CCCC3)C2)c2sccc2n1)c1cncc(F)c1 [Example Z605, (S)—N-(1-(2-((1-(5-Fluoropyridin-3-yl)ethyl)amino)thieno[3,2-d]pyrimidine-4-carbonyl)azetidin-3-yl)cyclopentanecarboxamide] | 0.77 | < 10 | 100 to 500 | < 10 | > 500
4 | C[C@H](Nc1nc(C(=O)N2CC(NC(=O)C(C)(C)C(F)(F)F)C2)c2sccc2n1)c1cncc(F)c1 [Example Z606, (S)-3,3,3-Trifluoro-N-(1-(2-((1-(5-fluoropyridin-3-yl)ethyl)amino)thieno[3,2-d]pyrimidine-4-carbonyl)azetidin-3-yl)-2,2-dimethylpropanamide] | 0.47 | < 10 | 100 to 500 | < 10 | > 500
5 | C[C@H](Nc1nc(C(=O)N2CC(NC(=O)C3COC3)C2)c2sccc2n1)c1cncc(F)c1 [Example Z607, (S)—N-(1-(2-((1-(5-Fluoropyridin-3-yl)ethyl)amino)thieno[3,2-d]pyrimidine-4-carbonyl)azetidin-3-yl)oxetane-3-carboxamide] | 4.49 | 10 to 50 | > 500 | 50 to 100 | > 500
6 | C[C@H](Nc1nc(C(=O)N2CC(NC(=O)C3(C)CCOC3)C2)c2sccc2n1)c1cncc(F)c1 (stereo partly drawn) [Example Z608, N-(1-(2-(((S)-1-(5-Fluoropyridin-3-yl)ethyl)amino)thieno[3,2-d]pyrimidine-4-carbonyl)azetidin-3-yl)-3-methyltetrahydrofuran-3-carboxamide] | 0.42 | 10 to 50 | > 500 | < 10 | > 500
7 | C[C@H](Nc1nc(C(=O)N2CC(NC(=O)C3(C(F)(F)F)CC3)C2)c2sccc2n1)c1cncc(F)c1 [Example Z609, (S)—N-(1-(2-((1-(5-Fluoropyridin-3-yl)ethyl)amino)thieno[3,2-d]pyrimidine-4-carbonyl)azetidin-3-yl)-1-(trifluoromethyl)cyclopropane-1-carboxamide] | 0.98 | < 10 | 100 to 500 | < 10 | > 500
8 | C[C@H](Nc1nc(C(=O)N2CC(NC(=O)C3CCCCC3)C2)c2sccc2n1)c1cncc(F)c1 [Example Z610, (S)—N-(1-(2-((1-(5-Fluoropyridin-3-yl)ethyl)amino)thieno[3,2-d]pyrimidine-4-carbonyl)azetidin-3-yl)cyclohexanecarboxamide] | 0.24 | < 10 | 10 to 50 | < 10 | > 500
9 | C[C@H](Nc1nc(C(=O)N2CC(NC(=O)NC(C)(C)C)C2)c2sccc2n1)c1cncc(F)c1 [Example Z611, (S)-1-(tert-Butyl)-3-(1-(2-((1-(5-fluoropyridin-3-yl)ethyl)amino)thieno[3,2-d]pyrimidine-4-carbonyl)azetidin-3-yl)urea] | 0.80 | < 10 | 100 to 500 | < 10 | > 500
10 | C[C@H](Nc1nc(C(=O)N2CC(NC(=O)CCC3CCOCC3)C2)c2sccc2n1)c1cncc(F)c1 [Example Z612, (S)—N-(1-(2-((1-(5-Fluoropyridin-3-yl)ethyl)amino)thieno[3,2-d]pyrimidine-4-carbonyl)azetidin-3-yl)-3-(tetrahydro-2H-pyran-4-yl)propanamide] | 1.02 | 10 to 50 | 100 to 500 | 10 to 50 | > 500
11 | C[C@H](Nc1nc(C(=O)N2CC(NC(=O)c3cccc(F)c3)C2)c2sccc2n1)c1cncc(F)c1 [Example Z613, (S)-3-Fluoro-N-(1-(2-((1-(5-fluoropyridin-3-yl)ethyl)amino)thieno[3,2-d]pyrimidine-4-carbonyl)azetidin-3-yl)benzamide] | 2.55 | < 10 | 100 to 500 | < 10 | > 500
12 | C[C@H](Nc1nc(C(=O)N2CC(NC(=O)c3ccccc3F)C2)c2sccc2n1)c1cncc(F)c1 [Example Z614, (S)-2-Fluoro-N-(1-(2-((1-(5-fluoropyridin-3-yl)ethyl)amino)thieno[3,2-d]pyrimidine-4-carbonyl)azetidin-3-yl)benzamide] | 1.76 | < 10 | 100 to 500 | < 10 | > 500
13 | C[C@H](Nc1nc(C(=O)N2CC(NC(=O)c3cccc(Cl)c3)C2)c2sccc2n1)c1cncc(F)c1 [Example Z615, (S)-3-Chloro-N-(1-(2-((1-(5-fluoropyridin-3-yl)ethyl)amino)thieno[3,2-d]pyrimidine-4-carbonyl)azetidin-3-yl)benzamide] | 2.10 | < 10 | 100 to 500 | < 10 | > 500
14 | C[C@H](Nc1nc(C(=O)N2CC(NC(=O)c3ccc(F)c(F)c3)C2)c2sccc2n1)c1cncc(F)c1 [Example Z616, (S)-3,4-Difluoro-N-(1-(2-((1-(5-fluoropyridin-3-yl)ethyl)amino)thieno[3,2-d]pyrimidine-4-carbonyl)azetidin-3-yl)benzamide] | 4.32 | < 10 | > 500 | 10 to 50 | > 500
15 | C[C@H](Nc1nc(C(=O)N2CC(NC(=O)c3ccc(Cl)cc3)C2)c2sccc2n1)c1cncc(F)c1 [Example Z617, (S)-4-Chloro-N-(1-(2-((1-(5-fluoropyridin-3-yl)ethyl)amino)thieno[3,2-d]pyrimidine-4-carbonyl)azetidin-3-yl)benzamide] | 3.67 | < 10 | > 500 | 10 to 50 | > 500
16 | C[C@H](Nc1nc(C(=O)N2CC(NC(=O)OC3CCCC3)C2)c2sccc2n1)c1cncc(F)c1 [Example Z618, Cyclopentyl (S)-(1-(2-((1-(5-fluoropyridin-3-yl)ethyl)amino)thieno[3,2-d]pyrimidine-4-carbonyl)azetidin-3-yl)carbamate] | 1.31 | 10 to 50 | 100 to 500 | 10 to 50 | > 500
